Experimental data: PubChem BioAssay (NCI)
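Cultured in 96-well plates, cells were exposed to test compound for 48 hours across five concentrations. GI50 = concentration required for 50% inhibition of growth. The concentration for full growth arrest is given as TGI.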

Columns and labels:
Test in all cases: NCI-60 cell line screen, 48 h
HCT-116 colon = system: HCT-116 colon
UACC-257 melanoma = system: UACC-257 melanoma
SK-MEL-2 melanoma = system: SK-MEL-2 melanoma
CCRF-CEM leukemia = system: CCRF-CEM leukemia
A498 renal = system: A498 renal
HT29 colon = system: HT29 colon
ACHN renal = system: ACHN renal
NCI-H522 lung = system: NCI-H522 lung
PC-3 prostate = system: PC-3 prostate
MCF7 breast = system: MCF7 breast
M14 melanoma = system: M14 melanoma
NCI/ADR-RES ovarian = system: NCI/ADR-RES ovarian
HCC-2998 colon = system: HCC-2998 colon
K-562 leukemia = system: K-562 leukemia
CAKI-1 renal = system: CAKI-1 renal
SK-MEL-5 melanoma = system: SK-MEL-5 melanoma
DU-145 prostate = system: DU-145 prostate
IGROV1 ovarian = system: IGROV1 ovarian
SF-295 CNS = system: SF-295 CNS
TK-10 renal = system: TK-10 renal
SF-268 CNS = system: SF-268 CNS
MALME-3M melanoma = system: MALME-3M melanoma
NCI-H226 lung = system: NCI-H226 lung
SF-539 CNS = system: SF-539 CNS
SK-MEL-28 melanoma = system: SK-MEL-28 melanoma
UO-31 renal = system: UO-31 renal
MDA-MB-435 = system: MDA-MB-435
OVCAR-4 ovarian = system: OVCAR-4 ovarian
786-0 renal = system: 786-0 renal
HS 578T breast = system: HS 578T breast
UACC-62 melanoma = system: UACC-62 melanoma
SNB-75 CNS = system: SNB-75 CNS
HOP-92 NSCLC = system: HOP-92 NSCLC
U251 CNS = system: U251 CNS
MDA-MB-231 breast = system: MDA-MB-231 breast
A549 NSCLC = system: A549 NSCLC
EKVX NSCLC = system: EKVX NSCLC
COLO 205 colon = system: COLO 205 colon
OVCAR-3 ovarian = system: OVCAR-3 ovarian
NCI-H23 lung = system: NCI-H23 lung
SK-OV-3 ovarian = system: SK-OV-3 ovarian
SNB-19 CNS = system: SNB-19 CNS
MOLT-4 leukemia = system: MOLT-4 leukemia
SW-620 colon = system: SW-620 colon
MDA-MB-468 breast = system: MDA-MB-468 breast
T-47D breast = system: T-47D breast
OVCAR-5 ovarian = system: OVCAR-5 ovarian
HL-60(TB) leukemia = system: HL-60(TB) leukemia
SN12C renal = system: SN12C renal
SR leukemia = system: SR leukemia
NCI-H460 lung = system: NCI-H460 lung
HCT-15 colon = system: HCT-15 colon
BT-549 breast = system: BT-549 breast
RXF 393 renal = system: RXF 393 renal
HOP-62 NSCLC = system: HOP-62 NSCLC
KM12 colon = system: KM12 colon
OVCAR-8 ovarian = system: OVCAR-8 ovarian
RPMI-8226 leukemia = system: RPMI-8226 leukemia

What does the source list for COc1ccc2c(c1)c(-c1cc(N)n3nc(-c4cn(C)c5ccccc45)cc3n1)cn2C?
GI50 (HCT-116 colon): 1.16 µM; TGI (HCT-116 colon): 2.42 µM; GI50 (UACC-257 melanoma): 1.77 µM; TGI (UACC-257 melanoma): 3.26 µM; GI50 (SK-MEL-2 melanoma): 1.7 µM; TGI (SK-MEL-2 melanoma): 3.23 µM; GI50 (CCRF-CEM leukemia): 0.864 µM; TGI (CCRF-CEM leukemia): 5.38 µM; GI50 (A498 renal): 1.76 µM; TGI (A498 renal): 3.27 µM; GI50 (HT29 colon): 1.86 µM; TGI (HT29 colon): 3.38 µM; GI50 (ACHN renal): 1.65 µM; TGI (ACHN renal): 3.02 µM; GI50 (NCI-H522 lung): 1.65 µM; TGI (NCI-H522 lung): 3.15 µM; GI50 (PC-3 prostate): 1.8 µM; TGI (PC-3 prostate): 3.69 µM; GI50 (MCF7 breast): 0.934 µM; TGI (MCF7 breast): 2.52 µM; GI50 (M14 melanoma): 1.85 µM; TGI (M14 melanoma): 3.59 µM; GI50 (NCI/ADR-RES ovarian): 2.03 µM; TGI (NCI/ADR-RES ovarian): 4.18 µM; GI50 (HCC-2998 colon): 2.09 µM; TGI (HCC-2998 colon): 3.65 µM; GI50 (K-562 leukemia): 0.401 µM; TGI (K-562 leukemia): 4.5 µM; GI50 (CAKI-1 renal): 1.71 µM; TGI (CAKI-1 renal): 3.14 µM; GI50 (SK-MEL-5 melanoma): 1.81 µM; TGI (SK-MEL-5 melanoma): 3.23 µM; GI50 (DU-145 prostate): 2.05 µM; TGI (DU-145 prostate): 4.01 µM; GI50 (IGROV1 ovarian): 1.73 µM; TGI (IGROV1 ovarian): 3.25 µM; GI50 (SF-295 CNS): 1.78 µM; TGI (SF-295 CNS): 3.43 µM; GI50 (TK-10 renal): 1.91 µM; TGI (TK-10 renal): 3.36 µM; GI50 (SF-268 CNS): 1.97 µM; TGI (SF-268 CNS): 4.08 µM; GI50 (MALME-3M melanoma): 1.7 µM; TGI (MALME-3M melanoma): 3.09 µM; GI50 (NCI-H226 lung): 2.04 µM; TGI (NCI-H226 lung): 4.93 µM; GI50 (SF-539 CNS): 1.7 µM; TGI (SF-539 CNS): 3.19 µM; GI50 (SK-MEL-28 melanoma): 1.8 µM; TGI (SK-MEL-28 melanoma): 3.32 µM; GI50 (UO-31 renal): 1.59 µM; TGI (UO-31 renal): 2.98 µM; GI50 (MDA-MB-435): 1.76 µM; TGI (MDA-MB-435): 3.21 µM; GI50 (OVCAR-4 ovarian): 1.82 µM; TGI (OVCAR-4 ovarian): 3.28 µM; GI50 (786-0 renal): 1.55 µM; TGI (786-0 renal): 2.97 µM; GI50 (HS 578T breast): 2.18 µM; TGI (HS 578T breast): 4.77 µM; GI50 (UACC-62 melanoma): 1.73 µM; TGI (UACC-62 melanoma): 3.14 µM; GI50 (SNB-75 CNS): 1.43 µM; TGI (SNB-75 CNS): 2.8 µM; GI50 (HOP-92 NSCLC): 1.76 µM; TGI (HOP-92 NSCLC): 3.41 µM; GI50 (U251 CNS): 1.84 µM; TGI (U251 CNS): 3.44 µM; GI50 (MDA-MB-231 breast): 1.82 µM; TGI (MDA-MB-231 breast): 3.27 µM; GI50 (A549 NSCLC): 1.81 µM; TGI (A549 NSCLC): 3.51 µM; GI50 (EKVX NSCLC): 1.46 µM; TGI (EKVX NSCLC): 3.3 µM; GI50 (COLO 205 colon): 1.92 µM; TGI (COLO 205 colon): 3.67 µM; GI50 (OVCAR-3 ovarian): 1.94 µM; TGI (OVCAR-3 ovarian): 3.68 µM; GI50 (NCI-H23 lung): 1.97 µM; TGI (NCI-H23 lung): 4.09 µM; GI50 (SK-OV-3 ovarian): 1.92 µM; TGI (SK-OV-3 ovarian): 3.51 µM; GI50 (SNB-19 CNS): 2.18 µM; TGI (SNB-19 CNS): 5 µM; GI50 (MOLT-4 leukemia): 1.69 µM; TGI (MOLT-4 leukemia): 5.41 µM; GI50 (SW-620 colon): 1.8 µM; TGI (SW-620 colon): 3.6 µM; GI50 (MDA-MB-468 breast): 1.67 µM; TGI (MDA-MB-468 breast): 3.31 µM; GI50 (T-47D breast): 1.94 µM; TGI (T-47D breast): 4.15 µM; GI50 (OVCAR-5 ovarian): 1.95 µM; TGI (OVCAR-5 ovarian): 3.85 µM; GI50 (HL-60(TB) leukemia): 1.4 µM; TGI (HL-60(TB) leukemia): 3.94 µM; GI50 (SN12C renal): 1.66 µM; TGI (SN12C renal): 3.05 µM; GI50 (SR leukemia): 0.288 µM; TGI (SR leukemia): 1.13 µM; GI50 (NCI-H460 lung): 1.9 µM; TGI (NCI-H460 lung): 3.6 µM; GI50 (HCT-15 colon): 1.04 µM; TGI (HCT-15 colon): 2.68 µM; GI50 (BT-549 breast): 1.87 µM; TGI (BT-549 breast): 3.57 µM; GI50 (RXF 393 renal): 1.85 µM; TGI (RXF 393 renal): 3.41 µM; GI50 (HOP-62 NSCLC): 1.73 µM; TGI (HOP-62 NSCLC): 3.35 µM; GI50 (KM12 colon): 2.1 µM; TGI (KM12 colon): 4.48 µM; GI50 (OVCAR-8 ovarian): 1.88 µM; TGI (OVCAR-8 ovarian): 3.53 µM; GI50 (RPMI-8226 leukemia): 2.08 µM; TGI (RPMI-8226 leukemia): 6.07 µM
